Experiment [1] deals with T1, Hexokinase-1 (Homo sapiens, UniProt P19367).
T1 sequence (P19367 whole entry): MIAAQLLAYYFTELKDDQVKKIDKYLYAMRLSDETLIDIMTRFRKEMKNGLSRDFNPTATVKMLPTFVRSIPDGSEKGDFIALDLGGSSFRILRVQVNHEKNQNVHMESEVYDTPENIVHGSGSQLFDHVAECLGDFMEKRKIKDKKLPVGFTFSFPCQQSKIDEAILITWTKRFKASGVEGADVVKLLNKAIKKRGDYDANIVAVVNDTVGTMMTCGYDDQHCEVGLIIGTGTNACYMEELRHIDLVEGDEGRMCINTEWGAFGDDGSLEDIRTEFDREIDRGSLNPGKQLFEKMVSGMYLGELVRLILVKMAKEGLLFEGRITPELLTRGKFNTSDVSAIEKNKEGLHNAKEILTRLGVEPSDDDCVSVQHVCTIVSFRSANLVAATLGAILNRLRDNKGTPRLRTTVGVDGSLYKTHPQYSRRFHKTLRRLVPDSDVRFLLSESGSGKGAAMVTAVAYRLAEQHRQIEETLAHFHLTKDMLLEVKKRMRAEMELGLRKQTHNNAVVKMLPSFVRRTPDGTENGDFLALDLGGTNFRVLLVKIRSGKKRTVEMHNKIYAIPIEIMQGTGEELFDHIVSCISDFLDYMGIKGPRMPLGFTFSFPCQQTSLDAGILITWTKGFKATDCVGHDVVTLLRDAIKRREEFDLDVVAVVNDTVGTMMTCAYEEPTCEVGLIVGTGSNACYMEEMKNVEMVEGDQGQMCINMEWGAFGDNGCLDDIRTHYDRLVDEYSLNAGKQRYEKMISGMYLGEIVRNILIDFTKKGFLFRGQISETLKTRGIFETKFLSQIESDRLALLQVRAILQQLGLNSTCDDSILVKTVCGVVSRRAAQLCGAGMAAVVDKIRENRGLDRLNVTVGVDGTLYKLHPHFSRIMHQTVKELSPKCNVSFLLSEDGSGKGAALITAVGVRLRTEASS
In words: HK1 enzyme inhibition by HKDC1 hits, SAR follow-up, selectivity assay for HKDC1 inhibitor project, biochemical, set 2, resazurin fluorescence coupled readout (AID 588356). The experiment is classed as functional.

Experiment [2] concerns the target T2, Hexokinase HKDC1 (Homo sapiens, UniProt Q2TB90).
T2 sequence (Q2TB90 whole entry): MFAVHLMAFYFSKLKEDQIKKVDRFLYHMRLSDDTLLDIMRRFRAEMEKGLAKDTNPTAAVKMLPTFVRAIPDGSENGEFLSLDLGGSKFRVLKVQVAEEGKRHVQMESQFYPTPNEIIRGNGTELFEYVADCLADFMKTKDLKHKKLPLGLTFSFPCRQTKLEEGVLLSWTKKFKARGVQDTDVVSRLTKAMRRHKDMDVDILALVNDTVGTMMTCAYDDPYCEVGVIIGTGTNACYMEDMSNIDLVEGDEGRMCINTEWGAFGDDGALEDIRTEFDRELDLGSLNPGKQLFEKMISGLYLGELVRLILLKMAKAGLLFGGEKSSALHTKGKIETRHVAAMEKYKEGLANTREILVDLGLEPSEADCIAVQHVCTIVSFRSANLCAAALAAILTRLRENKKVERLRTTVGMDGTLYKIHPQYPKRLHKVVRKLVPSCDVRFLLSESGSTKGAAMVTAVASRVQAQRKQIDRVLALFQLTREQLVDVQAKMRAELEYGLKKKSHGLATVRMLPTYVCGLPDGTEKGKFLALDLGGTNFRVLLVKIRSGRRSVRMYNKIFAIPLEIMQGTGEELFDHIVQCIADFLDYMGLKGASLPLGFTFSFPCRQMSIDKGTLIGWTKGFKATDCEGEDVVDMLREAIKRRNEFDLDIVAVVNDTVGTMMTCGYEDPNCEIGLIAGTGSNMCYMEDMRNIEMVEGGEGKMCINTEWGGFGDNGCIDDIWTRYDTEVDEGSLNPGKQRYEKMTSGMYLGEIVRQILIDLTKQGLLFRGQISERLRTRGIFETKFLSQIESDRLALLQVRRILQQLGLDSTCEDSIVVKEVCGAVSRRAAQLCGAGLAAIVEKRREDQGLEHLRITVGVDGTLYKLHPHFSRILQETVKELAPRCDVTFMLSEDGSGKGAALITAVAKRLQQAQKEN
In words: HKDC1 hexokinase inhibitors, SAR follow-up, biochemical, set 2 (AID 588355). The experiment is classed as functional.

Experiment [3] addresses Glycogen synthase kinase-3 beta (Homo sapiens, UniProt P49841). In words: Inhibition of Human GSK-3 beta Activity Measured in Biochemical System Using Microfluidics - 2063-05_Inhibitor_Dose_DryPowder_Activity. [Related pubchem assays (depositor defined):AID2709].
Experiment [4] has as its target Glycogen synthase kinase-3 alpha (Homo sapiens, UniProt P49840). In words: Inhibition of Human GSK-3 alpha Activity Measured in Biochemical System Using Microfluidics - 2063-06_Inhibitor_Dose_DryPowder_Activity. [Related pubchem assays (depositor defined):AID2709].
Experiment [5] deals with HEK293. In words: cells. The experiment is classed as functional, cell-based. The note with it: Homo sapiens.
Experiment [6] concerns the target T3, Nuclear receptor subfamily 0 group B member 1 (Homo sapiens, UniProt P51843).
T3 sequence (P51843 whole entry): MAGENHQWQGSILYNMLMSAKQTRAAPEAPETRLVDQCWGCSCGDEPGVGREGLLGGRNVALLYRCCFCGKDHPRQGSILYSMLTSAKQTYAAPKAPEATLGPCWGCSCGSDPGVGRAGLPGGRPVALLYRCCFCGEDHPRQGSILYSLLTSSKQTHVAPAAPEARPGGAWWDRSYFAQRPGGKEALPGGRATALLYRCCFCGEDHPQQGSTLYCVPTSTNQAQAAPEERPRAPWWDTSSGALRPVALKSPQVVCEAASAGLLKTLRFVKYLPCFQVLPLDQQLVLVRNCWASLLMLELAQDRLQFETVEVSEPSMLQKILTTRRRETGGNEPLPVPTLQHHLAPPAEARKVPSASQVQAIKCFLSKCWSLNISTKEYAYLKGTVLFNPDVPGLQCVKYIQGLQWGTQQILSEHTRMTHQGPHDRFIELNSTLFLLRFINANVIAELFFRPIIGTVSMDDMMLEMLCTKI
In words: Luminescence-based cell-based high throughput dose response assay for inhibitors of the orphan nuclear receptor subfamily 0, group B, member 1 (DAX1; NR0B1). [Related pubchem assays (depositor defined):AID504766, AID504790]. The experiment is classed as functional.

The target of experiment [7] is T1, Hexokinase-1. Put plainly: SAR analysis of small molecule inhibitors of hexokinase domain containing I (HKDC1) in the hexokinase 1 selectivity assay. [Related pubchem assays (depositor defined):AID493160, AID493190]. The experiment is classed as functional.
Experiment [8] addresses T2, Hexokinase HKDC1. In words: SAR analysis of small molecule inhibitors of hexokinase domain containing I (HKDC1). [Related pubchem assays (depositor defined):AID493160, AID493190]. The experiment is classed as functional.
For experiment [9], the target named is Voltage-gated inwardly rectifying potassium channel KCNH2 (Homo sapiens, UniProt Q12809). The note with it: Potency.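 Note: confirmatory quantitative high-throughput screen measuring inhibition of hERG channel activity.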
Sequence of Voltage-gated inwardly rectifying potassium channel KCNH2 (Q12809 whole entry): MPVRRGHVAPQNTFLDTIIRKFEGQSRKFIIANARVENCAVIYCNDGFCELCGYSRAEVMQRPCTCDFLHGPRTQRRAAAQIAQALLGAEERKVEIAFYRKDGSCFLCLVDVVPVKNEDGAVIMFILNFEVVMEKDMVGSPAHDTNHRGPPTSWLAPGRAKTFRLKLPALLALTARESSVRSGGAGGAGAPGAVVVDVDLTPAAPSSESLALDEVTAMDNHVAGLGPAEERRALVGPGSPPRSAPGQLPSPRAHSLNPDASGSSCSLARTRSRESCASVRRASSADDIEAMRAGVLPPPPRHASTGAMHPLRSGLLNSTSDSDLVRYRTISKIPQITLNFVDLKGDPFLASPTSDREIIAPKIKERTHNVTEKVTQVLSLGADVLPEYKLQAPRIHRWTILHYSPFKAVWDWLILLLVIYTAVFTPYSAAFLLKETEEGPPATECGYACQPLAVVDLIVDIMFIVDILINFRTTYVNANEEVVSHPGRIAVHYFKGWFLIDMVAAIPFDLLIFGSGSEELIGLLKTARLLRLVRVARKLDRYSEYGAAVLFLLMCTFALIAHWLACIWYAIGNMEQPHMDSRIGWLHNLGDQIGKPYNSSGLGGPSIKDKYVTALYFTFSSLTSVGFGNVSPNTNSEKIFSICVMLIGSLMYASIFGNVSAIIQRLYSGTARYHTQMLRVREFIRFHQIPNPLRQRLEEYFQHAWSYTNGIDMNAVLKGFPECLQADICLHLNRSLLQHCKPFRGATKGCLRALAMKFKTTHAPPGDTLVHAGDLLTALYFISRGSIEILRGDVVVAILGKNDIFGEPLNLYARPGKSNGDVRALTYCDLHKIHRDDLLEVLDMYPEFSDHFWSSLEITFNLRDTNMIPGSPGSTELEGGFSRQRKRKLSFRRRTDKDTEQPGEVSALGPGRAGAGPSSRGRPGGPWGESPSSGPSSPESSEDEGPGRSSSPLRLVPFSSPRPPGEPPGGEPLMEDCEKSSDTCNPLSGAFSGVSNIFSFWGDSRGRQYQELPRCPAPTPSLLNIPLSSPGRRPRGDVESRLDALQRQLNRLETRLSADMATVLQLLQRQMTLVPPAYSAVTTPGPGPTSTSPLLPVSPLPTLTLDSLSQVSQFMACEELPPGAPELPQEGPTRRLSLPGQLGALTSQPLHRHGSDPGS
Experiment [10] concerns Streptococcus sp. 'group A'. In words: growth inhibition of control SK(-) GAS strain, dose response, counter-screen for streptokinase expression inhibitor project, luminescence, kanamycin, BacTiterGlo, confirmation (AID 1900). The experiment is classed as functional, organism-based. In general terms: The purpose of a counterscreen is to sort out artefacts and off-target activity.

The next experiment has as its system Escherichia coli. Put plainly: microbe, parasite or virus in culture.
The test system of the next experiment is Streptococcus. In words: Group A Streptococcus viability loss, dose response, counter-screen for streptokinase expression inhibitor project, luminescence, BacTiterGlo (AID 1915).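 Note: potency for reduction of bacterial viability or growth.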 The experiment is classed as functional, organism-based.
The subject of experiment [11] is BJ. In words: cytotoxicity toward BJ-TERT fibroblasts, dose response, cell-based, RAS-independent, luminescence (AID 1933). The experiment is classed as functional. The note with it: Homo sapiens.
A short description of experiment [12]: cytotoxicity toward DRD oncogenic fibroblasts, dose response, cell-based, non-viral oncogenic, luminescence (AID 1934). The experiment is classed as functional. The note with it: Homo sapiens.
For experiment [13], the system named is BJ. In words: cells. The conditions noted are these: Homo sapiens. The experiment is classed as functional, cell-based.
For experiment [14], the target named is T4, DNA repair protein RAD52 homolog (Homo sapiens, UniProt P43351).
T4 sequence (P43351 whole entry): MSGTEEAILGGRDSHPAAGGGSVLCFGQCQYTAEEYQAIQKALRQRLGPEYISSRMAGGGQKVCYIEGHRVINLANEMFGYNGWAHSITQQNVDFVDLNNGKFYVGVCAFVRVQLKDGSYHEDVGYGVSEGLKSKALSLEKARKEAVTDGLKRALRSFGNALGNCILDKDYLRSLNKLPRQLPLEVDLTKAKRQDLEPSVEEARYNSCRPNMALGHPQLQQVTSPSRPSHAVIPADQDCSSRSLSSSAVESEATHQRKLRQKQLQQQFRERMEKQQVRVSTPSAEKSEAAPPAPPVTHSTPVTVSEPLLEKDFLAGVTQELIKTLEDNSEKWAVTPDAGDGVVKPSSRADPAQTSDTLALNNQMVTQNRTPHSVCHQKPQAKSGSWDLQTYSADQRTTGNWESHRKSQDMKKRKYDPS
The experiment is classed as functional, biochemical.

Experiment [15] can be described thus: cytotoxicity toward NIH3T3 fibroblasts, dose response, counter-screen, cell-based, ATP luminescence, mouse fibroblasts (AID 2010).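 Note: cells exposed to compound for about 90 hours before reading.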 The experiment is classed as functional.
Experiment [16] in a line: HeLa cell cytotoxicity, dose response, cytotoxicity control for MgcRacGAP inhibitor project (AID 624300). The experiment is classed as functional.
In experiment [17] the test system is HEK293. In words: cells. The conditions noted are these: Homo sapiens.
Experiment [18] deals with T5, Rac GTPase-activating protein 1 (Homo sapiens, UniProt Q9H0H5).
T5 sequence (Q9H0H5 whole entry): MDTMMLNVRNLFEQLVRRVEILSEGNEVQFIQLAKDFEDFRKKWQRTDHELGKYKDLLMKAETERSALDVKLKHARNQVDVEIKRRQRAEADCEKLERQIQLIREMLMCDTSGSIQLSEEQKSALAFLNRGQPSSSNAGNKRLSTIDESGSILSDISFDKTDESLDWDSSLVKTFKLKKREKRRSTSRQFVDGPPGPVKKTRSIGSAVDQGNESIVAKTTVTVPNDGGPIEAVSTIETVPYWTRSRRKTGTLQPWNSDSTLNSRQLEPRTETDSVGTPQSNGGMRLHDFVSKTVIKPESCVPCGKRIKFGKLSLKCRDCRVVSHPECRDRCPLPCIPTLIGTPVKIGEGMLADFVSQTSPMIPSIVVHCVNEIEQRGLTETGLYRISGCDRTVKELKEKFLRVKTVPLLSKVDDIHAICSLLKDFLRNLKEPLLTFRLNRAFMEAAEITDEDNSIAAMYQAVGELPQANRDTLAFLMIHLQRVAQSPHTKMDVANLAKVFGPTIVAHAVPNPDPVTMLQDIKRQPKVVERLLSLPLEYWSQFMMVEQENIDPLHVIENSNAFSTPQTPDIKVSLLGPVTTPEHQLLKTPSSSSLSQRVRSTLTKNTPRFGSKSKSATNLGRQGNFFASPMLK
Put plainly: MgcRacGAP GTPase-activating activity inhibitors, confirmation, biochemical, ADP Hunter fluorescence, primary and confirmatory (AID 624330). The experiment is classed as functional.

For experiment [19], the system named is BJ. In words: cytotoxicity toward BJ-TERT-LT-ST fibroblasts, dose response, cell-based, RAS-independent, luminescence (AID 1935).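 Note: BJ fibroblasts immortalized with TERT plus LT and ST oncogenes.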 The note with it: Homo sapiens. The experiment is classed as functional.
Experiment [20] is described as follows: microbe, parasite or virus in culture. The experiment is classed as functional. The conditions noted are these: Mycobacterium tuberculosis.
Experiment [21] relates to HEK293. In words: cells. The conditions noted are these: Homo sapiens. The source holds these as a separate data set.
The nature of experiment [22]: Luminescent dose response cell-based high throughput screening assay for inhibitors of the Janus kinase 2 mutant JAK2V617F. [Related pubchem assays: 1446 (Primary screen.), 1521 (Confirmation assay.), 1486 (Counter screen.)]. The experiment is classed as functional.
Experiment [23] is described as follows: inhibitors of intracellular T. cruzi replication, confirmation, NIH3T3 host cells, beta-gal luminescence (AID 2044).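 Note: intracellular parasites grown in NIH/3T3 mouse fibroblasts as host cells; luminescent beta-galactosidase reporter signal from transgenic T. cruzi replicating inside host cells; inhibitors lower the luminescence signal.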 The experiment is classed as functional, cell-based.

Calls of active or inactive are those of the source.

Sequence of Glycogen synthase kinase-3 beta (P49841 whole entry): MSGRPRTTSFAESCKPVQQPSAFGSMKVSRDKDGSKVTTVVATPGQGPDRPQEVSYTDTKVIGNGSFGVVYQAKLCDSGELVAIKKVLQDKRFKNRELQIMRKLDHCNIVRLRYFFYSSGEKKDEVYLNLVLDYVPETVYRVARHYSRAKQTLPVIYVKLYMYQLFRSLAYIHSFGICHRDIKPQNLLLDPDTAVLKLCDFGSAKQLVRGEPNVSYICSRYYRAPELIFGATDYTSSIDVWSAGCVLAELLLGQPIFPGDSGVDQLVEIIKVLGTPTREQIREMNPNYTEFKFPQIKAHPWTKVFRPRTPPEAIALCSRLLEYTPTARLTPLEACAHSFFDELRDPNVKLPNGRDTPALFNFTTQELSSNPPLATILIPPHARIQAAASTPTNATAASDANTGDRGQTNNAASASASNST
Sequence of Glycogen synthase kinase-3 alpha (P49840 whole entry): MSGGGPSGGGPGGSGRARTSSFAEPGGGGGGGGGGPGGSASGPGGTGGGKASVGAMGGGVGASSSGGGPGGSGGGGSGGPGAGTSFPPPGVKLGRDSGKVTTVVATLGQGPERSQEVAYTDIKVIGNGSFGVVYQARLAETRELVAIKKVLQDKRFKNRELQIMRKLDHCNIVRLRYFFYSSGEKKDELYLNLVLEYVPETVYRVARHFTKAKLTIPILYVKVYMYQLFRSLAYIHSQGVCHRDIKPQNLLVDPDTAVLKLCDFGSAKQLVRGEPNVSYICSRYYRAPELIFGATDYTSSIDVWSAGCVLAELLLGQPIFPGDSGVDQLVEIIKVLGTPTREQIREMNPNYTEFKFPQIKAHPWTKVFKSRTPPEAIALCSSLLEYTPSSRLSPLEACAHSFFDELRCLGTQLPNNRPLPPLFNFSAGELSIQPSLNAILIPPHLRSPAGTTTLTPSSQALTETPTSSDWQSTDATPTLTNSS

By IC50 is commonly meant the concentration that gives 50% inhibition. For the compound `CC(=O)NC1C(=O)N(Cc2ccccc2)c2ccc(C)cc21` (stereo not given), the IC50 at Hexokinase-1 [1] and on Hexokinase HKDC1 [2] was > 80 µM (inactive) throughout.

In general, AC50 refers to the midpoint of the concentration-response curve, whichever way the signal moves. Consider `CCCCOC(=O)C1C(C)=Nc2ncnn2C1c1cccc(OC)c1OC` (stereo not given), for which the AC50 is 0.538 µM (active) in [3] and 0.989 µM (active) in [4].

With `Cc1cc([N+](=O)[O-])nn1CCCC(=O)NC1CCCCC1`, the IC50 (with HEK293 [5]; in experiment [6]) was > 67.5 µM (inactive) in each case.

For `COc1cc2c(cc1OC)-c1cc(NCc3cccnc3)nc(=O)n1CC2`, the IC50 at Hexokinase-1 [7] and at Hexokinase HKDC1 [8] was > 80 µM (inactive) each time.

As for `CCCCCC/C(C=O)=C\c1ccccc1`, the AC50 in [9] was 0.0501 µM (inconclusive).

The term EC50 denotes the concentration needed to bring the measured effect to its halfway point. Turning to `CCN1CCN(c2cc3c(cc2F)c(=O)c(C(=O)O)cn3C2CC2)CC1` [ENROFLOXACIN], the concentration giving a half-maximal response (EC50) in experiment [10] is 1.22 µM (active); in the experiment with Streptococcus it was 1.04 µM (active). Besides, the concentration at half-maximal activity (AC50) with Escherichia coli is 2.46 µM (active).

Regarding `Cc1cc2[nH]c3c(c[n+](C)c4ccccc34)c2cc1C`, the half-maximal effective concentration (EC50) in the experiment with BJ [11] was 3.9 µM (active); in [12] it was 5.3 µM (active); in the experiment on BJ [13], 5.11 µM (inconclusive); in [15], 6.13 µM (active); in the experiment on HEK293 [17], > 59.7 µM (inactive); with BJ [19] it was 5.36 µM (inconclusive). Further, the EC50 was > 59.7 µM (inactive) in the experiment with HEK293 [21] and 0.68 µM (active) in [23]. Further, in experiment [14], the AC50 was 0.372 µM (active). Further, the CC50 in experiment [16] was 11.8 µM (active); in experiment [20], 2.06 µM (active). In addition, the IC50 in experiment [18] is 36.2 µM (active); in experiment [22], 0.639 µM (active).

The record behind these values is ChEMBL document CHEMBL1201862, “PubChem BioAssay data set” (2004).
